One assay has as its system THP-1 cell line. As to the kind of experiment: LPS-induced signaling pathway in THP-1 cells pretreated with FMJ-G0 derivatives. It is filed as cell-based, human. To be noted: pretreated 4 μM 1 hour, LPS 1 μg/mL 4 hours; FIG. 8B. The method, then: Thereafter, the THP-1 cell line was pretreated with the synthesized FMJ-G0 derivatives FMJ-G1, FMJ-G2, and FMJ-G3 at a concentration of 4 μM for 1 hour. Lipopolysaccharide (1 μg/mL) was added to a culture medium in which the THP-1 cell line was cultured for 4 hours. The same cell line was collected, and a signaling pathway involved in inflammatory cytokine synthesis was identified, and the result is shown in FIG. 8B.

A further assay has as its system Balb/C mice. The assay can be described thus: DNCB-induced atopic dermatitis model, cosmetic cream applied to the skin. It is filed as in vivo, mouse. The note with it: for DNCB-induced atopic dermatitis (level of dermatitis): cosmetic cream (0.3% active; Lidomax ointment 0.15%) applied to the back for 2 weeks, FIG. 9A, 9C. The method, then: Wed added 0.3 g of olive wax to 2 mL of soybean oil (Sigma-Aldrich) in a glass tube (15 ml), and put the tube in a 75° C. water-bath, and performed a double boiling thereon to melt the olive wax for 30 minutes while vortexing the tube at 10 minute interval. Under the same conditions, 7.7 ml of purified water was put into a 75° C. water-bath and heated the same for 30 minutes. Next, 7.5 ml of purified water was poured into the tube containing the olive wax and the mixture was stirred well via vortexing. Then, […] (0.3%) of each of BMDA and derivatives thereof (FMJ-G0, FMJ-G4, FMJ-G1, FMJ-G2, FMJ-G3) as synthesized in Examples 1 and 3 were added to the mixture, followed by stirring. The reaction product was cooled in ice and prepared in the form of a cosmetic cream.
In order to induce atopic dermatitis using 5-week-old Balb/C mice, hair on the back of the mouse was removed therefrom, and after one day, a 0.5% solution in which DNCB (2,4-dinitrochlorobenzne) is mixed with acetone and olive oil (3:1) was prepared, and then was applied thereon for 3 consecutive days by 150 μL per each day. Thereafter, the solution of the same concentration was applied to the back area from which the hair was removed twice a week and this process continued for 2 weeks. Further, to alleviate atopic dermatitis induced in this way, the cosmetic cream containing each of BMDA (FMJ-G0) and the derivatives thereof (FMJ-G4, FMJ-G1, FMJ-G2, FMJ-G3) of the present disclosure as prepared above was applied to the back of rats with the induced atopic dermatitis for 2 weeks, and then, changes in skin inflammation were examined.
The experimental results of FIG. 10A and FIG. 10B was obtained as follows as in FIG. 9. The skin tissue was removed from the back of the mouse in the group, and was placed fixedly in 10% formaldehyde for 48 hours, and paraffin pieces were made, and the pieces were thinly sliced so as to have a thickness of 4 μm and was subjected to hematoxylin-esoin staining. Then, whether the damaged skin tissue was recovered by each of BMDA (FMJ-G0) and DMMA (FMJ-G4) was examined using an optical microscope equipped with a Leica application (Leica Microsystems, Switzerland).
To this end, the atopic dermatitis is induced in FIG. 9, and on 2 weeks since the treatment with BMDA (FMJ-G0) and DMMA (FMJ-G4), blood (500 ul) is collected from the hepatic veins of the rats of the above groups, and left at room temperature for 30 minutes. Then, serum was separated and prepared via centrifugation, and then, the IgE concentration related to the allergic reaction was measured through ELISA using the serum thus prepared.
Anti-mouse IgE (Pharmingen, CA, USA) was diluted with PBS (pH 7.4) on a 96-well plate, 100 μL thereof was coated on each 96-well plate, and then left at 4° C. for 12 hours. The plate was washed with PBS containing 0.05% tween. Blocking was performed thereon for 1 hour with PBS containing 1% BSA, 5% sucrose, and 0.05% NaN3. Washing was performed thereon several times using washing buffer. Recombinant IgE and serum were added thereto, and reaction occurred at 37° C. for 2 hours, and each well was washed again, and biotinylated IgE (Pharmingen, CA, USA) was added thereto. Reaction occurred for 2 hours. After washing the well, avidin peroxidase was added thereto and reaction occurred at 37° C. for 30 minutes. Then, the well was washed and then, ABTS solution as a substrate was added thereto. Absorbance was measured at 405 nm using ELISA reader (Epoch2, Biotek, VT, USA).
FIG. 11 show data obtained as follows. The atopic dermatitis was induced as described in FIG. 9, and on 2 weeks since the treatment with BMDA or DMMA (FMJ-G0/G4), a portion of the skin tissue of the rats in the groups were put in Trisol solution and the tissue was crushed in a sonicator. […]

The mark [1] stands for this setting: cosmetic cream (Lidomax ointment 0.15%) applied for 2 weeks, FIG. 9B, 9D.

The values below come from patent US20240041796A1, “ANTI-INFLAMMATORY COMPOSITION COMPRISING N-BENZYL-N-METHYLDECAN-1-AMINE OR A DERIVATIVE THEREOF AS AN ACTIVE INGREDIENT” (PUSAN NATIONAL UNIVERSITY INDUSTRY-UNIVERSITY COOPERATION …, priority 2022, published 2024).

Each structure is given as a SMILES string.

Turning to `CCCCCCCCCCN(CC)Cc1ccccc1` [FMJ-G1, Benzyl-decyl-ethyl-amine], in the assay with THP-1 cell line, the “phosphorylation of JNK resulting from LPS” value is given as “inhibited”, the “phosphorylation of MK2 resulting from LPS” value is “inhibited” and the “phosphorylation of p38 MAP kinase resulting from LPS” value is on record as “inhibited”. Further, the “DNCB-induced atopic dermatitis (level of dermatitis)” value with Balb/C mice is “significantly alleviates”.

For `CCCCCCCCCCCCN(C)Cc1ccccc1` [FMJ-G2, benzyl-dodecyl-methyl-amine], in the assay on THP-1 cell line, the “phosphorylation of JNK resulting from LPS” value was “inhibited”, the “phosphorylation of MK2 resulting from LPS” value was “inhibited” and the “phosphorylation of p38 MAP kinase resulting from LPS” value was “inhibited”. The “DNCB-induced atopic dermatitis (level of dermatitis)” value in the assay on Balb/C mice is listed as “did not prevent”. In addition, in the assay with Balb/C mice (setting [1]), the “size of the (inguinal) lymph node” value is listed as “increased” and the “size of the spleen” value is on record as “increased”.
